Patent publication US10005817B2, “Peptide pharmaceuticals” (EUMEDERIS PHARMACEUTICALS, INC., priority 2012, dated 2018)
Entries after “also recorded” stand apart in the source; their conditions may differ. Non-standard residues stand in square brackets, D forms with d. Residues, ends and D or L forms follow the SMILES beside them. *: point of attachment. GlcA(β-D,1-O-dodecyl) = CCCCCCCCCCCCO[C@@H]1O[C@H](C(=O)*)[C@@H](O)[C@H](O)[C@H]1O; βGlcA(1-OMe) = CO[C@@H]1O[C@H](C(=O)*)[C@@H](O)[C@H](O)[C@H]1O; Dmt = Cc1cc(O)cc(C)c1C[C@H](N)C(=O)O; hArg = N=C(N)NCCCC[C@H](N)C(=O)O; Tic = O=C(O)[C@@H]1Cc2ccccc2CN1; Nle = CCCC[C@H](N)C(=O)O; Ac5c = NC1(C(=O)O)CCCC1; Aib = CC(C)(N)C(=O)O

What was measured:
PTH receptor (PTHR1) = target: T1, PTH receptor (PTHR1) (Homo sapiens, UniProt Q03431); assay: PTH1 cellular assay, antagonist mode with added PTHrP; format: cell-based; details: read-out: maximal effects in antagonist mode
T1 construct: Cerep SA
T1 sequence (Q03431 27-593): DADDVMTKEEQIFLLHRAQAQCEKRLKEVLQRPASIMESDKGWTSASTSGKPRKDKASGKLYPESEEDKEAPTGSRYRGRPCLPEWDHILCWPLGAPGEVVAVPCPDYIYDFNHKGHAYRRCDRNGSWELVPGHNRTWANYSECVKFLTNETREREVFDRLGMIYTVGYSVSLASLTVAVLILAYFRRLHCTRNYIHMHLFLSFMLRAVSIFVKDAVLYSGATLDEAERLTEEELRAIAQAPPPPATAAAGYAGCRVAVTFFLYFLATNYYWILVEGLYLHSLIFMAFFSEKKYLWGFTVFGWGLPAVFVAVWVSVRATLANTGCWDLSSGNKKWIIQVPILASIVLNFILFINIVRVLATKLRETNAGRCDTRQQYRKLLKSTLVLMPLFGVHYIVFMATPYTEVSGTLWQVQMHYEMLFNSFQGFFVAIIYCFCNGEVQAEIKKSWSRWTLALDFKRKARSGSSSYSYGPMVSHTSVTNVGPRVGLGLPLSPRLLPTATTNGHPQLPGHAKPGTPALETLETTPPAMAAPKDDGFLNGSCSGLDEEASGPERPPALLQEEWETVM
Experimental: Compounds were weighed precisely in an amount of approximately 1 mg and assayed in standard cellular assays (cerep SA). The readout is the amount of cAMP generated in the cells treated with the test compounds, in either agonist or antagonist mode. The PTH1 cellular assay used is described in Orloff, J. J., et al. (1992) Endocrinol 131: 1603-1611.
Modifications elsewhere in the molecule can be used to further modify the potency and character of the interaction of the drug candidates.

mu opioid receptor = target: T2, mu opioid receptor (Homo sapiens, UniProt P35372); assay: mu opioid receptor cellular assay (MOP), agonist mode, cAMP readout (Cerep); format: cell-based
T2 construct: Cerep

delta2 opioid receptor = target: T3, delta2 opioid receptor (Mus musculus, UniProt P32300); assay: delta2 opioid receptor cellular assay (DOP), antagonist mode vs DPDPE, cAMP readout; format: cell-based
T3 construct: Cerep
Experimental: Compounds were weighed precisely in an amount of approximately 2 mg and assayed in standard cellular assays by the contract research organization Cerep, Inc. (Pullman, Wash.) as executed at their subsidiary, Cerep SA (Le Bois l'Eveque, France). The readout is the amount of cAMP generated in the cells treated with the test compounds, in either agonist or antagonist mode. The assays used were the mu opioid receptor cellular assay (MOP in agonist and antagonist mode), the delta2 opioid receptor cellular assay (DOP in agonist and antagonist mode) and the kappa opioid receptor cellular assay (KOP in agonist and antagonist mode). The assays used are described in Wang, J. B., et al. (1994) FEBS Lett 338: 217-222, Law, P. Y. and Loh, H. H. (1993) Mol Pharmacol 43: 684-693, and Avidor-Reiss, T., et al. (1995) FEBS Lett 361: 70-74. The stimulant for the cells in the DOR antagonist assay was 3×10E-8M DPDPE, a well-accepted DOR literature standard.

[1] = tested on: λ-carrageenan-induced inflammatory pain; assay: λ-carrageenan-induced inflammatory pain model, paw pressure threshold (Randall-Selitto); format: in vivo, rat; details: rats, i.pl., 24 h after carrageenan; beyond 30 min
Experimental: Adult male Sprague-Dawley rats were briefly anesthetized with isoflurane, and unilateral hind paw inflammatory pain was induced by injecting […] of λ-carrageenan. A λ-carrageenan injection into the left hind paw produces redness and edema. These alterations were observed within 6 h after induction of inflammation and peaked by 24 h. Further, the changes were confined to the carrageenan treated paw.
Changes in Paw Pressure Thresholds (PPT), a measurement of nociception and antinociception, was evaluated using a digital Randall-Selitto method. Briefly, animals are gently restrained and incremental pressure (maximum 350 g) was applied onto the dorsal surface of the hindpaw. The pressure required to elicit paw withdrawal, PPT, was determined. Paw-thickness, the indicator of inflammation, was measured using digital calipers. 24 h after induction of inflammation, rats received either saline, positive controls (DAMGO (8-32 μg) or fentanyl (0.4-0.8 μg)) or test peptides in 100 μl volume i.pl. The antinociception was measured at different time points (5 to 120 min or 5 hr to 24 hr) after drug administration. Baseline measures were taken before administering drug to confirm the development of inflammation and nociception.

GLP-1 R = target: T4, GLP-1 R (Mus musculus, UniProt O35659); assay: GLP-1 cellular assay, cAMP stimulation (murine cell line, Cerep); format: cell-based; details: n.c. = EC50 not calculable
T4 construct: GLP-1 (murine cell line) cellular assays
T4 sequence (O35659 22-463): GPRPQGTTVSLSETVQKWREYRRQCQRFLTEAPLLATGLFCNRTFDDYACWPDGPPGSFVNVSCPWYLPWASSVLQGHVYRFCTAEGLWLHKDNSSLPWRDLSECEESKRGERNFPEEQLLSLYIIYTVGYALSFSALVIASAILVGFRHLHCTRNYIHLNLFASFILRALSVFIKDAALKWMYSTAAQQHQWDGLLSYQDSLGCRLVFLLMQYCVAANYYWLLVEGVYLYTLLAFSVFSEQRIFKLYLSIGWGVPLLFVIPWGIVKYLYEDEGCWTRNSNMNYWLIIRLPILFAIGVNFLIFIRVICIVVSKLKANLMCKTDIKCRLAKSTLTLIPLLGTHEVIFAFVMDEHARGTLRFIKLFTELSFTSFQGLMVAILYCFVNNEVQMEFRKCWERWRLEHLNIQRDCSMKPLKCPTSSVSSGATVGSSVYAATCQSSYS
Experimental: Compounds were weighed precisely in an amount of approximately 1 mg and assayed in standard cellular assays (Cerep SA). The readout is the amount of cAMP generated in the cells treated with the test compounds, in either agonist or antagonist mode. […] The assays are described in Chicchi, G. G., et al. (1997) J Biol Chem 272: 7765-7769 and Runge, S., et al. (2003) Br J Pharmacol 138: 787-794.

db/db mice [2] = assay: db/db mice, blood glucose after s.c. dosing; format: in vivo, mouse; details: for Mean Blood Glucose: db/db mice, s.c., 300 nmole/kg
Experimental: The 60 female db/db B6BKS (D) Leprdb/J (strain 000697) mice for this study were approximately 8 to 9 weeks old at arrival (Jackson Laboratory, Bar Harbor, Me.). […] One group of 8 female mice served as the vehicle control and received the vehicle, 0.2% BSA in saline, pH 7.4. One additional group of 8 female mice received the positive control article, liraglutide, at a dose level of 50 nmoles/kg. The test articles, vehicle, and positive control article were administered on Day 1, at approximately 0, 7, and 24 hours during the study via subcutaneous injection at a dose volume of 6 mL/kg.
(§1) Clinical observations were conducted at receipt, prior to randomization, and daily from Days 1 to 5. Body weights were measured and recorded at receipt, prior to randomization, and daily from Days 1 to 5. Food consumption was measured and recorded daily from Days 1 to 5. Blood samples for glucose analysis were collected pretest (Day −3) and at 0, 1, 2, 4, 8, 10, 24, 48, 72, and 96 hours following the first dose on Day 1. At study termination all animals were euthanized and the carcasses were discarded without further evaluation.

db/db mice [3] = assay: db/db mice, body weight; format: in vivo, mouse; details: high dose (300 nmoles/kg), Days 2 and 3
Experimental: The 60 female db/db B6BKS (D) Leprdb/J (strain 000697) mice for this study were approximately 8 to 9 weeks old at arrival (Jackson Laboratory, Bar Harbor, Me.). The mice were randomized by weight and two treatment groups of 8 female mice each were administered the test articles, EU-A994, EU-A995, or EU-A1026, at dose levels of 100 or 300 nmoles/kg. One group of 8 female mice served as the vehicle control and received the vehicle, 0.2% BSA in saline, pH 7.4. One additional group of 8 female mice received the positive control article, liraglutide, at a dose level of 50 nmoles/kg. The test articles, vehicle, and positive control article were administered on Day 1, at approximately 0, 7, and 24 hours during the study via subcutaneous injection at a dose volume of 6 mL/kg.
as §1

T3 sequence (P32300 whole entry): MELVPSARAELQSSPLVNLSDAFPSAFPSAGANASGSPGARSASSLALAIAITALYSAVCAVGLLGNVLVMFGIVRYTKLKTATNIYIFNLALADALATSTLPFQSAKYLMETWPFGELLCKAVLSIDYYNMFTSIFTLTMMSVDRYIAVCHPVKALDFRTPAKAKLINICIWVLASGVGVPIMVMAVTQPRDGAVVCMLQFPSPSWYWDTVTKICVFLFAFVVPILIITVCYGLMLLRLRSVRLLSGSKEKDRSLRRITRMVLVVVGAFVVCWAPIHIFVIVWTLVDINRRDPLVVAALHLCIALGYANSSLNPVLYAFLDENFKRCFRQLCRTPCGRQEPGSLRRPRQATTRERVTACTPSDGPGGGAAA
T2 sequence (P35372 whole entry): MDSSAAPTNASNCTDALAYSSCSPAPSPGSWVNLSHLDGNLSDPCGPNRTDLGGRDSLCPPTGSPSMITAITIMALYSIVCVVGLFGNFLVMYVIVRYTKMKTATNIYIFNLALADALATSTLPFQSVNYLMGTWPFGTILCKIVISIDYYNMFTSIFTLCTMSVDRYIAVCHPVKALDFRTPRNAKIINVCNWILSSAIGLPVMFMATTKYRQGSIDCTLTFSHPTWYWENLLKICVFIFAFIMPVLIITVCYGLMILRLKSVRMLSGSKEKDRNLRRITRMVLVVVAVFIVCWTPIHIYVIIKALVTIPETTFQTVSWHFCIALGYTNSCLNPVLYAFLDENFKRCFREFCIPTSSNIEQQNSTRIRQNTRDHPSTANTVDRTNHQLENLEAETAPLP

CCCCCCCCCCCCO[C@@H]1O[C@H](C(=O)NCCCC[C@H](NC(=O)[C@H](CCC(N)=O)NC(=O)[C@@H](NC(=O)[C@H](Cc2ccccc2)NC(=O)[C@H](CCCNC(=N)N)NC(=O)[C@H](C)NC(=O)[C@H](CCCCNC(=N)N)NC(=O)[C@H](CCC(N)=O)NC(=O)[C@H](Cc2c[nH]cn2)NC(=O)[C@H](CCCC)NC(=O)[C@H](CC(C)C)NC(=O)[C@H](CCC(N)=O)NC(=O)[C@@H](NC(=O)[C@H](CCC(=O)O)NC(=O)C(C)(C)NC(=O)[C@@H](NC(=O)C2(N)CCCC2)C(C)C)[C@@H](C)CC)[C@@H](C)CC)C(N)=O)[C@@H](O)[C@H](O)[C@H]1O [EU-203] (H-[Ac5c]V[Aib]EIQL[Nle]HQ[hArg]ARFIQK(GlcA(β-D,1-O-dodecyl))-NH2; N-terminus assumed)
Emax (PTH receptor (PTHR1)): 146%

CO[C@@H]1O[C@H](C(=O)NCCCC[C@H](NC(=O)[C@H](Cc2ccccc2)NC(=O)[C@@H]2Cc3ccccc3CN2C(=O)[C@@H](N)Cc2c(C)cc(O)cc2C)C(N)=O)[C@@H](O)[C@H](O)[C@H]1O [EU-A178, 2′,6′-dimethyl-L-tyrosyl-L-1,2,3,4-tetrahydroisoquinoline-3-carbonyl-L-phenylalanyl-Nε-(1′-methyl β-D-glucuronyl)-L-lysyl-amide] (H-[Dmt][Tic]FK(βGlcA(1-OMe))-NH2)
Characterization (MOP) (mu opioid receptor): full agonistic behavior; also recorded: Pure MOP Ag;
Characterization (DOP) (delta2 opioid receptor): pure antagonist; also recorded: pure DOP antag
Paw Pressure Thresholds (PPT) [1]: statistically significant increases in PPT

CCCCCCCCCCCCO[C@@H]1O[C@H](C(=O)NCCCC[C@H](NC(=O)[C@@H]2CCCCNC(=O)CC[C@H](NC(=O)[C@H](CC(=O)O)NC(=O)[C@H](CC(C)C)NC(=O)[C@H](Cc3ccc(O)cc3)NC(=O)[C@H](CCCCN)NC(=O)[C@H](CO)NC(=O)[C@H](Cc3ccc(O)cc3)NC(=O)[C@H](CC(=O)O)NC(=O)[C@H](CO)NC(=O)[C@@H](NC(=O)[C@H](Cc3ccccc3)NC(=O)[C@@H](NC(=O)CNC(=O)[C@H](CCC(N)=O)NC(=O)C(C)(C)NC(=O)[C@@H](N)Cc3c[nH]cn3)[C@@H](C)O)[C@@H](C)O)C(=O)N[C@@H](CCCNC(=N)N)C(=O)N[C@@H](C)C(=O)N[C@@H](C)C(=O)N2)C(=O)N[C@@H](Cc2ccccc2)C(=O)NC(C)(C)C(N)=O)[C@@H](O)[C@H](O)[C@H]1O [EU-A455]
EC50 (GLP-1 R): 59 nM

CCCCCCCCCCCCCCO[C@@H]1O[C@H](C(=O)NCCCC[C@H](NC(=O)[C@@H](NC(=O)[C@H](Cc2ccccc2)NC(=O)[C@H](CCC(=O)O)NC(=O)[C@@H]2CCCCNC(=O)CC[C@H](NC(=O)[C@H](CC(=O)O)NC(=O)[C@H](CC(C)C)NC(=O)[C@H](Cc3ccc(O)cc3)NC(=O)[C@H](CCCCN)NC(=O)[C@H](CO)NC(=O)[C@H](Cc3ccc(O)cc3)NC(=O)[C@H](CC(=O)O)NC(=O)[C@H](CO)NC(=O)[C@@H](NC(=O)[C@H](Cc3ccccc3)NC(=O)[C@@H](NC(=O)CNC(=O)[C@H](CCC(N)=O)NC(=O)C(C)(C)NC(=O)[C@@H](N)Cc3c[nH]cn3)[C@@H](C)O)[C@@H](C)O)C(=O)N[C@@H](CCC(N)=O)C(=O)N[C@@H](C)C(=O)N[C@@H](C)C(=O)N2)[C@@H](C)CC)C(=O)N[C@@H](Cc2c[nH]c3ccccc23)C(=O)N[C@@H](CC(C)C)C(=O)N[C@@H](CC(C)C)C(=O)N[C@@H](CCC(N)=O)C(=O)N[C@H](C(N)=O)[C@@H](C)O)[C@@H](O)[C@H](O)[C@H]1O [EU-A994]
Mean Blood Glucose (db/db mice [2]; 0 hr): 554 mg/dL
Mean Blood Glucose (db/db mice [2]; 10 hr): 242 mg/dL
Mean Blood Glucose (db/db mice [2]; 24 hr): 209 mg/dL
Mean Blood Glucose (db/db mice [2]; 48 hr): 385 mg/dL
Glucose levels vs vehicle (db/db mice [2]; high dose (300 nmoles/kg), at 10 and 24 hours): significantly different from vehicle
body weight changes against vehicle (db/db mice [3]): Significant body weight changes
